# Assay results: publication PMC9739105, “Myotoxin-3 from the Pacific Rattlesnake Crotalus oreganus oreganus Venom Is a New Microtubule-Targeting Agent” (Molecules, 2022)
# Where no end group is shown, it is not given here.
# How the values were obtained:
# [1] = system: bacteria/fungi (anti-microbial activity); details: without disulfide bonds; ref [18],[19]; cited from earlier work
# EB1 = details: through phosphorylation of EB1 by GSK3; ref [34]; cited from earlier work
# cell = details: ref [24]; cited from earlier work
# Source text: Moreover, myotoxin-3 altered the dynamics of microtubules in MCF-7 cells (Table 1). […] Disturbing the dynamic instability of microtubules is a hallmark o ...
# [2] = reference not given; cited from earlier work
# Source text: In summary, peak 1 contains two 45-residue peptides, i.e., myotoxin-3 (45-residue His^5-myotoxin-3) and one isoform with Leucine at position 5 (45-residue Leu^5-myotoxin-3). Peak 2 contains two shorter isoforms (43 residues) of myotoxin-3 with either Histidine (43-residue His^5-myotoxin-3) or Leucine at position 5 (43-residue Leu^5-myotoxin-3) (Figure 3). This structure resemblance explains the similarity in their chromatographic behavior.
# MCF-7 cells = details: ref [30]; cited from earlier work
# Source text: (§1) We also observed a different response of MCF-7 and U87 cells when measuring cell viability upon myotoxin-3 treatment. […] The tubulin isotype composition impacts the structural properties of microtubules and tunes their dynamics. Tubulin is also subjected to a large diversity of post-translational modifications that a ...
# HeLa cells = details: ref [30]; cited from earlier work
# Source text: as §1
# [3] = biological target: lamb brain αβ-tubulin heterodimer (lamb (purified from lamb brain)); experiment: ITC; PEAQ-ITC, 20 °C, 55 µM tubulin in the cell, 2.2 mM myotoxin 3 in the syringe, 20 mM sodium phosphate pH 6.5, 1 mM TCEP, 0.1 mM GTP (non-assembly buffer), one-set-of-sites model
molecule,measurement,setting,value
"DTT-reduced crotamine: DTT-reduced crotamine (YKQCHKKGGHCFPKEKICLPPSSDFGKMDCRWRWKCCKKGSG; DTT-reduced; UniProt Q9PWF3 23-64, looked up)",Antimicrobial activity,[1],kept their antimicrobial activity
C[C@@H]1O[C@@H](O[C@@H]2C=C3CC[C@@H]4[C@H](CC[C@]5(C)[C@@H](c6ccc(=O)oc6)CC[C@]45O)[C@@]3(C)CC2)[C@H](O)[C@H](O)[C@H]1O [proscillaridin A],Effect on microtubule dynamics,EB1,affecting microtubule dynamics through the phosphorylation of EB1 by GSK3
"non-structured recombinant crotamine: non-structured recombinant crotamine expressed in bacteria (YKQCHKKGGHCFPKEKICLPPSSDFGKMDCRWRWKCCKKGSG; also: recombinant, without disulfide bonds; UniProt Q9PWF3 23-64, looked up)",Antimicrobial activity,[1],kept their antimicrobial activity
crotamine,Cell penetration,cell,cell-penetrating properties
same,Anti-proliferative effect,[2],displaying an anti-proliferative effect
"non-structured crotamine: non-structured crotamine (without disulfide bonds) (YKQCHKKGGHCFPKEKICLPPSSDFGKMDCRWRWKCCKKGSG; without disulfide bonds; UniProt Q9PWF3 23-64, looked up)",Antimicrobial activity,[1],keeps its anti-microbial activity
C[C@]12CC[C@H](O)C[C@H]1CC[C@@H]1[C@@H]2CC[C@]2(C)[C@@H](c3ccc(=O)oc3)CC[C@]12O [bufalin],Effect on microtubule dynamics,EB1,affecting microtubule dynamics through the phosphorylation of EB1 by GSK3
CC[C@]1(O)C[C@H]2CN(CCc3c([nH]c4ccccc34)[C@@](C(=O)OC)(c3cc4c(cc3OC)N(C=O)[C@H]3[C@@](O)(C(=O)OC)[C@H](OC(C)=O)[C@]5(CC)C=CCN6CC[C@]43[C@@H]65)C2)C1 [vincristine],Response of cells to vincristine,MCF-7 cells,reattached to the culture flask after a failed mitosis and remained viable
same,Response of cells to vincristine,HeLa cells,detached and died
YKRCHKKGGHCFPKTVICLPPSSDFGKMDCRWKWKCCKKGSVNNA (cysteines not oxidized (no disulfide bonds)) [synthetic non-oxidized myotoxin-3 (without disulfide bonds)],Kd,[3],5.3 µM
same,stoichiometry N,[3]; scale: myotoxin-3 molecules per tubulin heterodimer,2
